According to ChEMBL document CHEMBL3880411, “Multikinase inhibitors for use in the treatment of cancer” (2009):
Active and inactive are the calls of the source. The calls are words filed in the database; no cut-off is given here.

Experiments:
[1] = Cytotoxicity against human PANC1 cells expressing K-ras G12D mutant assessed as reduction in cell viability after 96 hrs by CellTiter-Glo luminescence assay or methylene blue assay; assay type: functional, cell-based; conditions: PANC-1, 96 h
[2] = target: BDNF/NT-3 growth factors receptor (Homo sapiens) (UniProt Q16620); test: Inhibition of human TrkB assessed as remaining activity at 1 uM after 40 mins in presence of [gamma33P-ATP] by scintillation counting
BDNF/NT-3 growth factors receptor (Homo sapiens), sequence (Q16620 32-822 limits assumed): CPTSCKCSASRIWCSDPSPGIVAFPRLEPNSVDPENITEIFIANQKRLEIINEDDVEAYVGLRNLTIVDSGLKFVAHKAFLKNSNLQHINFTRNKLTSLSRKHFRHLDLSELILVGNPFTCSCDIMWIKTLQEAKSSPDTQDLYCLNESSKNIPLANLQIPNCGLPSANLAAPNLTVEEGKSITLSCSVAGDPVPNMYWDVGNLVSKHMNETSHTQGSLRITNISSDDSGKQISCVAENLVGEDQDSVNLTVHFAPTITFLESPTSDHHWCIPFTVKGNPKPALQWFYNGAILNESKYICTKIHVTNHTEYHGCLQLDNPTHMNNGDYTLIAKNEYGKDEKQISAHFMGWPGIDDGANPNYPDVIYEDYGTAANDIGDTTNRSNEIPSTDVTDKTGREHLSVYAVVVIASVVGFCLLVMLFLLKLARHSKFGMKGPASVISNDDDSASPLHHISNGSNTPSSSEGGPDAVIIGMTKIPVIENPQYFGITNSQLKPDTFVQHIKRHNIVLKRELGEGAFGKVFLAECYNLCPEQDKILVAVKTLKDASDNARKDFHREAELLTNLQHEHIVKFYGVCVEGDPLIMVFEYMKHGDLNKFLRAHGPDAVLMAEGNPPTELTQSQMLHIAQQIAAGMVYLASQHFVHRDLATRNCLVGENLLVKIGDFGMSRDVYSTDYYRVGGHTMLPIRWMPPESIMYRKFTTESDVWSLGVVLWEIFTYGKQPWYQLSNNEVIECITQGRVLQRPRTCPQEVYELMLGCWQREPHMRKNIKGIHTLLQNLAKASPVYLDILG

[3] = Antiproliferative activity against human RL cells after 96 hrs by MTT assay; assay type: functional, cell-based
[4] = Cytotoxicity against human MDA-MB-435 cells expressing B-RAF V600E mutant assessed as reduction in cell viability after 96 hrs by CellTiter-Glo luminescence assay or methylene blue assay; assay type: functional, cell-based; conditions: MDA-MB-435, 96 h
[5] = Antiproliferative activity against human RPMI8226 cells after 96 hrs by MTT assay; assay type: functional, cell-based; conditions: RPMI-8226, 96 h
[6] = target: Proto-oncogene tyrosine-protein kinase Src (Homo sapiens) (UniProt P12931); test: Inhibition of human c-Src assessed as remaining activity at 0.1 uM after 40 mins in presence of [gamma33P-ATP] by scintillation counting
Proto-oncogene tyrosine-protein kinase Src (Homo sapiens), sequence (P12931 2-536 limits assumed): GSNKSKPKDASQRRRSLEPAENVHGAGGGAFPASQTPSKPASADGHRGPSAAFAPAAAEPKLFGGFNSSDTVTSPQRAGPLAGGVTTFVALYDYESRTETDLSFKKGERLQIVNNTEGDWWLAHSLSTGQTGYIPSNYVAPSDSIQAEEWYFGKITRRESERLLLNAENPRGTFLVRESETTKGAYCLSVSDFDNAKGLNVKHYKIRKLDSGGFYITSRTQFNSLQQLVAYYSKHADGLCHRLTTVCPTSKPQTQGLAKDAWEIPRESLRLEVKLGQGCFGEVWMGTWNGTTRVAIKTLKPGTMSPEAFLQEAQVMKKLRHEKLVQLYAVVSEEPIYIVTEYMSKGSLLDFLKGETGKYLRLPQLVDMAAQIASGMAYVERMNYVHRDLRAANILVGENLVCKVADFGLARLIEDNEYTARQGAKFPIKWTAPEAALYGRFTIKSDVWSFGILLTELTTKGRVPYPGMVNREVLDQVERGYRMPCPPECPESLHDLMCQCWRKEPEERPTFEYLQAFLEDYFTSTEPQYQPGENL

[7] = target: Tyrosine-protein kinase Lyn (Homo sapiens) (UniProt P07948); test: Inhibition of human Lyn assessed as remaining activity at 1 uM after 40 mins in presence of [gamma33P-ATP] by scintillation counting
Tyrosine-protein kinase Lyn (Homo sapiens), sequence (P07948 2-512 limits assumed): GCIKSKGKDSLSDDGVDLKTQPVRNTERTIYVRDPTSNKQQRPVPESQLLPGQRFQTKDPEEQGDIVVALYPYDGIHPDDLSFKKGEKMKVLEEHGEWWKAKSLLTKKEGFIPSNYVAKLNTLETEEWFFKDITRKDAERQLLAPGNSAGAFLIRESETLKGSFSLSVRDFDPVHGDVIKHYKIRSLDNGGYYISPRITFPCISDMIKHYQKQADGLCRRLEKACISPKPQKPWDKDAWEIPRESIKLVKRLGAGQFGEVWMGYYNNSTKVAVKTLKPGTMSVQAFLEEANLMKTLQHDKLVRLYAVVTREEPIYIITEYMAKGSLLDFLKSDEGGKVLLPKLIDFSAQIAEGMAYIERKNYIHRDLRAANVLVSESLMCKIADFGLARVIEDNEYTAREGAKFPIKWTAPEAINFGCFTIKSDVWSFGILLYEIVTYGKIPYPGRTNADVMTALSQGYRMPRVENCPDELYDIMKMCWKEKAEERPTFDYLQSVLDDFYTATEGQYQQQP

[8] = target: Tyrosine-protein kinase ABL1 (Homo sapiens) (UniProt P00519); test: Inhibition of human Abl assessed as remaining activity at 0.1 uM after 40 mins in presence of [gamma33P-ATP] by scintillation counting
Tyrosine-protein kinase ABL1 (Homo sapiens), sequence (P00519 whole entry): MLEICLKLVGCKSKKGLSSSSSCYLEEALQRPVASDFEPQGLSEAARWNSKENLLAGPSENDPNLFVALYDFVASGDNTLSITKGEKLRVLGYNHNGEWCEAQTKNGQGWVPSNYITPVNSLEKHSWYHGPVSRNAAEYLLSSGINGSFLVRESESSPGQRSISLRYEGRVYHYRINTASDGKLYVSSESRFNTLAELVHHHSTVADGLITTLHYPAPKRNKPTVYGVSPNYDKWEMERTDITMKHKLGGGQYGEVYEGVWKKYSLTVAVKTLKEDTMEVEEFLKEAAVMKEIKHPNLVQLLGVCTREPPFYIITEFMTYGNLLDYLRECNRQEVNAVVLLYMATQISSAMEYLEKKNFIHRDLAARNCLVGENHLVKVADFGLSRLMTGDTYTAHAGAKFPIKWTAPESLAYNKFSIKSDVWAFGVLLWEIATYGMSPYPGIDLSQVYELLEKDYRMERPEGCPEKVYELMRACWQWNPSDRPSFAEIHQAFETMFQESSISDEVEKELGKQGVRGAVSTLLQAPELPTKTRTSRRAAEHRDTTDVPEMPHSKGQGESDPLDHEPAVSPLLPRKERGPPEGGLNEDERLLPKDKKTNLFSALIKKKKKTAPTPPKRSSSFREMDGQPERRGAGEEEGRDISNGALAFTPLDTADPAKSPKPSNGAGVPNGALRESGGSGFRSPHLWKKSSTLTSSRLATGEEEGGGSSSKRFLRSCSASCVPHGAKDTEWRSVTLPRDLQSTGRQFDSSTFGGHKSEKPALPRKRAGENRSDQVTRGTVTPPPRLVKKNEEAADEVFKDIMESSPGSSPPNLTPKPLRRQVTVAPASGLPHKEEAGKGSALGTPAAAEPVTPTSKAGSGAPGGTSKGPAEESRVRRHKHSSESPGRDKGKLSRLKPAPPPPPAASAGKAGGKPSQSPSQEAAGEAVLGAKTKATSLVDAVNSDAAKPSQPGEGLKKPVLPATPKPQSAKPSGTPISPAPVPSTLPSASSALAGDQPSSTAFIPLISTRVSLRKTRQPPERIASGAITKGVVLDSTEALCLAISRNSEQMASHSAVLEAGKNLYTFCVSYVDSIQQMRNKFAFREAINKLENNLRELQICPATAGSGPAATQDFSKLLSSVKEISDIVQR

[9] = Cytotoxicity against human MES-SA/Dx5-Rx1 cells assessed as reduction in cell viability after 96 hrs by CellTiter-Glo luminescence assay or methylene blue assay; assay type: functional, cell-based
[10] = target: BDNF/NT-3 growth factors receptor (Homo sapiens) (UniProt Q16620); test: Inhibition of human TrkB assessed as remaining activity at 0.1 uM after 40 mins in presence of [gamma33P-ATP] by scintillation counting
[11] = target: Tyrosine-protein kinase Lck (Homo sapiens) (UniProt P06239); test: Inhibition of human Lck assessed as remaining activity at 1 uM after 40 mins in presence of [gamma33P-ATP] by scintillation counting
Tyrosine-protein kinase Lck (Homo sapiens), sequence (P06239 2-509 limits assumed): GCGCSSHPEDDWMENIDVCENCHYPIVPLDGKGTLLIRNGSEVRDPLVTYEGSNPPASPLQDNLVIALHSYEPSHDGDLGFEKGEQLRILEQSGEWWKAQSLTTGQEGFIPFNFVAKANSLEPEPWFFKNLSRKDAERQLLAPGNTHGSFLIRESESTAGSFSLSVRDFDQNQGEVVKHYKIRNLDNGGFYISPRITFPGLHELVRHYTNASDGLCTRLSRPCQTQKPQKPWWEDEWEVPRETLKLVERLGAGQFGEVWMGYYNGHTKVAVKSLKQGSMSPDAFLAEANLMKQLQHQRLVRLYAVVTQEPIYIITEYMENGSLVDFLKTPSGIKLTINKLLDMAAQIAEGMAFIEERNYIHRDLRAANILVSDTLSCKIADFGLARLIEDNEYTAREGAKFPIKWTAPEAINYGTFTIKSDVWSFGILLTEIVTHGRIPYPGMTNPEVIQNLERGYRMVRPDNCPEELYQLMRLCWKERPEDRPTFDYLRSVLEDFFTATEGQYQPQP

[12] = tested on: Receptor-type tyrosine-protein kinase FLT3 (Homo sapiens), P36888 [UNDEFINED MUTATION]; test: Inhibition of Flt-3 activation mutant phosphorylation in human MV4-11 cells after 24 hrs by Western blot analysis; assay type: cell-based
Receptor-type tyrosine-protein kinase FLT3 (Homo sapiens), P36888 [UNDEFINED MUTATION], sequence (P36888 whole entry, looked up, change not shown): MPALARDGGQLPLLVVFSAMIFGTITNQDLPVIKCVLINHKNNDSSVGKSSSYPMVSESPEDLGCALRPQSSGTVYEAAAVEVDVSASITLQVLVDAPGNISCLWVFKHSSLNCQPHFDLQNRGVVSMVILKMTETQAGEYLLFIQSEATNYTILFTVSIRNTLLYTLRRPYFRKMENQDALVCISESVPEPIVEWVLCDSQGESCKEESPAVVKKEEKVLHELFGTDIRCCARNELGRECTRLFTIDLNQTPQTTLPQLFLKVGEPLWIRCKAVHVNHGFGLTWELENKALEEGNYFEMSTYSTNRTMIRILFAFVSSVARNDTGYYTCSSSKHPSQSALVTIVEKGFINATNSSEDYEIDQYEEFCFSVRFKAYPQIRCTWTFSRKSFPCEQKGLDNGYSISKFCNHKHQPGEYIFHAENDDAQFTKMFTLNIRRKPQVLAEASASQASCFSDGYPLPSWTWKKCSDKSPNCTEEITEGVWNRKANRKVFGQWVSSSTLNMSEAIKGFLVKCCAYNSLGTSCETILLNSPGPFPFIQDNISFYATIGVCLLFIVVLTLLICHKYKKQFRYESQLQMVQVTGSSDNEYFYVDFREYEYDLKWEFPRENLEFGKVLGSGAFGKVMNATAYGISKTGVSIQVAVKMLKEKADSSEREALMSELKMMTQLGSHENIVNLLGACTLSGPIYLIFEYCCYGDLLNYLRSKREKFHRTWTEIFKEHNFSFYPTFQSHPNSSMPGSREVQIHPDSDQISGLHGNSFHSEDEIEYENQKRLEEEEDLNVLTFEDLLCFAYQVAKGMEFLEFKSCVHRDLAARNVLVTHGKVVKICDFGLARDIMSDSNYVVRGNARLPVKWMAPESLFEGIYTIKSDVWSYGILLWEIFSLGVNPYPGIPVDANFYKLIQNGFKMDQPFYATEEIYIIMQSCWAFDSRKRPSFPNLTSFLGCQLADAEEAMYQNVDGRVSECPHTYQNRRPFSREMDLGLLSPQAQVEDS

[13] = target: Nuclear factor NF-kappa-B complex (Homo sapiens) (UniProt Q00653+P19838+Q04206); test: Inhibition of NFkappaB (unknown origin); assay type: protein-complex assay
[14] = Cytotoxicity against human AU565 cells assessed as reduction in cell viability after 96 hrs by CellTiter-Glo luminescence assay or methylene blue assay; assay type: functional, cell-based; conditions: AU565, 96 h
[15] = target: Tyrosine-protein kinase Fyn (Homo sapiens) (UniProt P06241); test: Inhibition of human Fyn assessed as remaining activity at 1 uM after 40 mins in presence of [gamma33P-ATP] by scintillation counting
Tyrosine-protein kinase Fyn (Homo sapiens), sequence (P06241 2-537 limits assumed): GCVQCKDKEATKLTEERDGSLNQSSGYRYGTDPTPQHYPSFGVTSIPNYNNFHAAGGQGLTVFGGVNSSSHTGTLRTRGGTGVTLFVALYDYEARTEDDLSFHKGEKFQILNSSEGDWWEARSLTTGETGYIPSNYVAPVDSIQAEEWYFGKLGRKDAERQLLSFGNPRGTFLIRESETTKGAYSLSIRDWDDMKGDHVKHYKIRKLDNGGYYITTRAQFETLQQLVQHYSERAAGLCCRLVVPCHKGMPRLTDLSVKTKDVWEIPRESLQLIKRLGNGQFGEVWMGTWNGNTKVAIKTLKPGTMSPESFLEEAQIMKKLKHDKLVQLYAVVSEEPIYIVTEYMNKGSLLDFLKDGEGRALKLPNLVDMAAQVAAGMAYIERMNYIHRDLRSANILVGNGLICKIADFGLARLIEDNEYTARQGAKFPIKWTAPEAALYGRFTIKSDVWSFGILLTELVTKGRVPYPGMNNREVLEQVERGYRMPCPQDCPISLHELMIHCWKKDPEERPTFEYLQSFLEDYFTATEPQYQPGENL

[16] = Cytotoxicity against human LoVo cells expressing K-ras G13D mutant assessed as reduction in cell viability after 96 hrs by CellTiter-Glo luminescence assay or methylene blue assay; assay type: functional, cell-based
[17] = Antiproliferative activity against human MV4-11 cells expressing Flt-3 activation mutant after 96 hrs by CellTiter-Glo luminescence assay; assay type: functional, cell-based; conditions: MV4-11, 96 h
[18] = Cytotoxicity against human SK-MEL-24 cells expressing B-RAF V600E mutant assessed as reduction in cell viability after 96 hrs by CellTiter-Glo luminescence assay or methylene blue assay; assay type: functional, cell-based; conditions: SK-MEL-24, 96 h
[19] = Antiproliferative activity against human NALM6 cells after 96 hrs by MTT assay; assay type: functional, cell-based; conditions: NALM-6, 96 h
[20] = Cytotoxicity against human MCF7 cells assessed as reduction in cell viability after 96 hrs by CellTiter-Glo luminescence assay or methylene blue assay; assay type: functional, cell-based; conditions: MCF7, 96 h
[21] = Cytotoxicity against human MIAPaCa2 cells expressing K-ras G12C mutant assessed as reduction in cell viability after 96 hrs by CellTiter-Glo luminescence assay or methylene blue assay; assay type: functional, cell-based; conditions: MIA PaCa-2, 96 h
[22] = target: Receptor-type tyrosine-protein kinase FLT3 (Homo sapiens) (UniProt P36888); test: Inhibition of human Flt3 assessed as remaining activity at 0.1 uM after 40 mins in presence of [gamma33P-ATP] by scintillation counting
Receptor-type tyrosine-protein kinase FLT3 (Homo sapiens), sequence (P36888 whole entry): as the sequence (P36888 whole entry, looked up, change not shown) above

[23] = Cytotoxicity against human SK-MEL-2 cells expressing N-ras Q61R mutant assessed as reduction in cell viability after 96 hrs by CellTiter-Glo luminescence assay or methylene blue assay; assay type: functional, cell-based; conditions: SK-MEL-2, 96 h
[24] = Antiproliferative activity against human K562 cells after 96 hrs by MTT assay; assay type: functional, cell-based; conditions: K562, 96 h
[25] = Cytotoxicity against human MDA-MB-231 cells expressing K-ras G13D mutant assessed as reduction in cell viability after 96 hrs by CellTiter-Glo luminescence assay or methylene blue assay; assay type: functional, cell-based; conditions: MDA-MB-231, 96 h
[26] = Cytotoxicity against human COLO205 cells expressing B-RAF V600E mutant assessed as reduction in cell viability after 96 hrs by CellTiter-Glo luminescence assay or methylene blue assay; assay type: functional, cell-based; conditions: COLO 205, 96 h
LOX = test: Antitumor activity against human LOX cells expressing B-RAF V600E mutant xenografted in athymic mouse assessed as tumor regression at 10 to 40 mg/kg, iv administered for two weekly rounds of five injections daily with two-day rest period between the rounds measured twice weekly from first day of treatment; assay type: functional, organism-based
[27] = Antiproliferative activity against human HL60 cells after 96 hrs by MTT assay; assay type: functional, cell-based; conditions: HL-60, 96 h
[28] = target: Tyrosine-protein kinase ABL1 (Homo sapiens) (UniProt P00519); test: Inhibition of human Abl assessed as remaining activity at 1 uM after 40 mins in presence of [gamma33P-ATP] by scintillation counting
[29] = Antiproliferative activity against human THP1 cells after 96 hrs by MTT assay; assay type: functional, cell-based; conditions: THP-1, 96 h
[30] = Cytotoxicity against human SK-MEL-3 cells expressing B-RAF V600E mutant assessed as reduction in cell viability after 96 hrs by CellTiter-Glo luminescence assay or methylene blue assay; assay type: functional, cell-based; conditions: SK-MEL3, 96 h
[31] = target: Tyrosine-protein kinase Fyn (Homo sapiens) (UniProt P06241); test: Inhibition of human Fyn assessed as remaining activity at 0.1 uM after 40 mins in presence of [gamma33P-ATP] by scintillation counting
[32] = Cytotoxicity against human DLD1 cells expressing K-ras G13D mutant assessed as reduction in cell viability after 96 hrs by CellTiter-Glo luminescence assay or methylene blue assay; assay type: functional, cell-based; conditions: DLD-1, 96 h
[33] = target: Tyrosine-protein kinase Lyn (Homo sapiens) (UniProt P07948); test: Inhibition of human Lyn assessed as remaining activity at 0.1 uM after 40 mins in presence of [gamma33P-ATP] by scintillation counting
[34] = Cytotoxicity against human HCT116 cells expressing K-ras G13D mutant assessed as reduction in cell viability after 96 hrs by CellTiter-Glo luminescence assay or methylene blue assay; assay type: functional, cell-based; conditions: HCT-116, 96 h
[35] = Cytotoxicity against human MES-SA cells assessed as reduction in cell viability after 96 hrs by CellTiter-Glo luminescence assay or methylene blue assay; assay type: functional, cell-based

CCNc1cc(O)c2c(c1)/C=C/C[C@H](O)[C@H](O)C(=O)/C=C\[C@@H](C)[C@H](C)OC2=O [E-6201]
IC50 [1]: > 10000 nM
Activity [2]: 4%
IC50 [3]: 1650 nM
IC50 [4]: 71 nM
IC50 [5]: > 7050 nM
Activity [6]: 31%
Activity [7]: 2%
Activity [8]: 51%
IC50 [9]: 1590 nM
Activity [10]: 24%
Activity [11]: 0%
inhibition [12]: Dose-dependent effect
inhibition [13]: Active
IC50 [14]: > 10000 nM
Activity [15]: 0%
IC50 [16]: 132 nM
IC50 [17]: 8.2 nM
IC50 [18]: 66 nM
IC50 [19]: 620 nM
IC50 [20]: > 10000 nM
IC50 [21]: 734 nM
Activity [22]: 33%
IC50 [23]: 135 nM
IC50 [24]: 1800 nM
IC50 [25]: 156 nM
IC50 [26]: 43 nM
Activity (LOX): Active
IC50 [27]: 60 nM
Activity [28]: 15%
IC50 [29]: 120 nM
IC50 [30]: 24 nM
Activity [31]: 24%
IC50 [32]: 649 nM
Activity [33]: 45%
IC50 [34]: 423 nM
IC50 [35]: 7490 nM
